The record followed here is patent US9266902B2, “Labelling reagents having a pyridine nucleus bearing a diazomethyl function, process for synthesis of such reagents and processes for detection of biological molecules” (priority 2008, dated 2016).

Data set [1] concerns RNA amplicon (NASBA), 16S RNA of Mycobacterium tuberculosis. As to the kind of experiment: Labelling of RNA amplicon without interim purification, detection by hybridisation on DNA chip. The following applies: label 2 mM, 3 mM HCl, no purification. The method, then: In a 1 mL tube, the following are mixed: • 5 μL of 8 mM label solution (96/4 DMSO/Methanol).
The nucleic acids thus labelled are not purified, but are hybridised directly.
The labelled nucleic acids are transferred without purification into 480 μL of hybridisation buffer. The samples are hybridised on the DNA chips in the same way as for the previous example.

Data set [2] has the same test system. The following applies: label 2.5 mM, hybridisation at 45° C. up to 24 hrs.
Method: The solution is mixed by vortex then incubated for 10 minutes at 65° C.
The labelled nucleic acids were purified on a QiaQuick (PCR purification kit, Qiagen) column using the purification protocol recommended by the manufacturer. The elution volume is 100 μL.
After purification, the labelled nucleic acids are transferred into 400 of hybridisation buffer. The samples are hybridised on the DNA chips designed for the analysis of the “GenBank” M20940 sequence of the 16S RNA of Mycobacterium tuberculosis. […] The hybridisation stages were performed by injecting. 80 μL of the hybridisation mixture into the chip then maintaining this in a hybridisation oven at 45° C. for 0.5 hour, 2 hours, 6.5 hours or 24 hours.
300 μL of pure water; 300 μL of 100 mM Tris buffer pH 7/1 M NaCl/0.05% Tween 20/0.005% antifoamant; 6 μL of BSA (50 mg/mL); 6 μL of SA-PE (300 μg/mL).
The reading of the fluorescence emitted at the surface of the DNA chip after labelling and hybridisation and the generation of data in terms of signal intensity and percentage homology are performed with the reading systems and software supplied by Affymetrix. The reading system supplies signal and background noise intensities expressed in rfu (“relative fluorescence unit”). The percentage homology is given relative to a reference sequence which in this case is the sequence of Mycobacterium tuberculosis.
Data set [3] is described as follows: Stability in the dry form at +4° C. after lyophilisation (HPLC purity over time). The following applies: 250 mM in 10 mM Tris HCl pH 7.5 and 10% trehalose, lyophilised one night.
Data set [4] can be described thus: Stability in a liquid medium at ambient temperature (HPLC purity over time). The format is physicochemical. The following applies: 125 mM in 96/4 DMSO/methanol, ambient temperature (22° C.), at 10 days.

Turning to Pyridine Diazo Biotin [PyDB], in data set [1], the “background noise compared to BBP” value is on record as “reduced background noise”, the percentage homology entry is “higher” and the “specific signals (specific hybridisation) compared to BBP” value was “improved”. Further, in data set [2], the “stability of labelled amplicons in the course of hybridisation” value is recorded as “perfectly stable”. Further, in data set [3], the stability to lyophilisation entry is “perfectly stable”.
As for “[Bio-EG3]2-PDAM [BBP, reference compound]”, the “purity of the initial compound” value in data set [4] was under 10%. Besides, in data set [1], the percentage homology entry was “relatively low”.
